Test results: ChEMBL document CHEMBL5625232, “Development of selective class I protein arginine methyltransferase inhibitors through fragment-based drug design approach” (Eur J Med Chem, 2023)
≈ marks a conversion by molar mass, not a printed value.

What was measured:
[1] = target: T1, Histone-lysine N-methyltransferase SMYD3 (Homo sapiens) (UniProt Q9H7B4); experiment: Displacement of 3H-SAM from SMYD3 (unknown origin) using biotinylated-MAP3K2 as substrate at 30 uM incubated for 45 mins by SPA assay relative to control
T1 sequence (whole entry): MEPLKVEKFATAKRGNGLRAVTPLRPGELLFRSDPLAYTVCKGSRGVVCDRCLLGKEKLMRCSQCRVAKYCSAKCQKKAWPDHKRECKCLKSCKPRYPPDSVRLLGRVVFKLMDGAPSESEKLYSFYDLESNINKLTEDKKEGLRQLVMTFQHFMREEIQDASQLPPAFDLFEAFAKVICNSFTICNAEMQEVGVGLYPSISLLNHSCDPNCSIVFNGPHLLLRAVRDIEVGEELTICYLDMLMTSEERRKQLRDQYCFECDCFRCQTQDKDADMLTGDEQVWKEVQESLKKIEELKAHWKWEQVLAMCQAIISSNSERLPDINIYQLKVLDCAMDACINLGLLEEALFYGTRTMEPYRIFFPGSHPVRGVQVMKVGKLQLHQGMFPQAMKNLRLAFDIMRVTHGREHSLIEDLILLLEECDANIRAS

[2] = Lipophilicity, log D of compound in 1-octanol at pH 7.4 incubated for 4 hrs by HPLC-UV analysis; format: physicochemical; details: 1-octanol/aqueous phase
[3] = target: Histone-lysine N-methyltransferase, H3 lysine-79 specific (Homo sapiens) (UniProt Q8TEK3); experiment: Displacement of 3H-SAM from DOT1L (unknown origin) at 30 uM incubated for 1 hr in presence of substrate by SPA assay relative to control
Histone-lysine N-methyltransferase, H3 lysine-79 specific (Homo sapiens), sequence (Q8TEK3 whole entry, looked up): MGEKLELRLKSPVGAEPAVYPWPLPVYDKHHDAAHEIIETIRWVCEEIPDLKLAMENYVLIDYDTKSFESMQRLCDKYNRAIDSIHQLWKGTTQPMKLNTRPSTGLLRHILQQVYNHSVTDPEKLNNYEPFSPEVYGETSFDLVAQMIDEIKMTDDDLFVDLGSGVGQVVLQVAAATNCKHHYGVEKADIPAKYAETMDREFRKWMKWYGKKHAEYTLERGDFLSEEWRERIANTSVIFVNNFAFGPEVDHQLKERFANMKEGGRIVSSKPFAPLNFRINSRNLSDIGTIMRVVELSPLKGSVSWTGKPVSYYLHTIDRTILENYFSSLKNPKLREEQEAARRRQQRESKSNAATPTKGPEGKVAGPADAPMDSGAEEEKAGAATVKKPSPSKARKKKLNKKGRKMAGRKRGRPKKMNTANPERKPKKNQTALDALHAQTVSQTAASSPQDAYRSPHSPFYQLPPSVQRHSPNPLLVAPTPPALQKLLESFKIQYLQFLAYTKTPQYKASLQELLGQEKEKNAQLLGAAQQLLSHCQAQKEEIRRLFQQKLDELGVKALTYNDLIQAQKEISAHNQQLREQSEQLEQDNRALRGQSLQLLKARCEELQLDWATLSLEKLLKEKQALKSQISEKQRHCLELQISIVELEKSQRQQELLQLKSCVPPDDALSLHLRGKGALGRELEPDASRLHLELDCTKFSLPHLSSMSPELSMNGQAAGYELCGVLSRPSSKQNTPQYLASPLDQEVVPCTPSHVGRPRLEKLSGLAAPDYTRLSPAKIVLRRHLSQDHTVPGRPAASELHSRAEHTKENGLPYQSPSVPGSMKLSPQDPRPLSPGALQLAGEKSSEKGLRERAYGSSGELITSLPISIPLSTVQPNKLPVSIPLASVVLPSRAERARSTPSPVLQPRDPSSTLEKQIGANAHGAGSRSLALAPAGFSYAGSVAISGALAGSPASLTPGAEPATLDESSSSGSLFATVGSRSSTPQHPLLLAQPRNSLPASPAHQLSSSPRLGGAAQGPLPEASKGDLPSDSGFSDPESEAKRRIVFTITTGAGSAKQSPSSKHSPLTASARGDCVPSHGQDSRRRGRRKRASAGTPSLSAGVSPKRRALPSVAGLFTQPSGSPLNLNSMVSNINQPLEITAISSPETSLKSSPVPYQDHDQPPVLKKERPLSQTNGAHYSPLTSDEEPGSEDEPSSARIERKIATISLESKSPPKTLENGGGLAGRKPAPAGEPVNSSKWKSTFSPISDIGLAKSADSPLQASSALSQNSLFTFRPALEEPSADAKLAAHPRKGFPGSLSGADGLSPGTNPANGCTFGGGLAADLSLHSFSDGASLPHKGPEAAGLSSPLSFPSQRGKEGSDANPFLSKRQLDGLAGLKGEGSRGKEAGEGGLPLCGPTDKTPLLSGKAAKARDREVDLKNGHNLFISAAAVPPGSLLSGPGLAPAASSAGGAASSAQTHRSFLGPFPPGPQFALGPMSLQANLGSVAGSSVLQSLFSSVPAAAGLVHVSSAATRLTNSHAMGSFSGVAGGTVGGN

[4] = target: T2, Histone-lysine N-methyltransferase SUV39H1 (Homo sapiens) (UniProt O43463); experiment: Displacement of 3H-SAM from SUV39H1 (unknown origin) using biotinylated-histone H3 peptide as substrate at 30 uM incubated for 45 mins by SPA assay relative to control
T2 sequence (whole entry): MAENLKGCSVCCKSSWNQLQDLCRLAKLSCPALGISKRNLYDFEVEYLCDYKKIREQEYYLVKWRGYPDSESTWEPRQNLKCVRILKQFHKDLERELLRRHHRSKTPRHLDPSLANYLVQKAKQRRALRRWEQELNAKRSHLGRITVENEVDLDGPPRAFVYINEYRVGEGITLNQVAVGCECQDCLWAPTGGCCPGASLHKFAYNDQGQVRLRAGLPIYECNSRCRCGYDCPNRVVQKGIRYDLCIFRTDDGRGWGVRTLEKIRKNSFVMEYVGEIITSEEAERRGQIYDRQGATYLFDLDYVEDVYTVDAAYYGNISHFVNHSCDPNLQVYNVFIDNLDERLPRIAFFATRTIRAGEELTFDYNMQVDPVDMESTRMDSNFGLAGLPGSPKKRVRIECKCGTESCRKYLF

[5] = Metabolic stability in human liver microsomes assessed as half life preincubated for 10 mins followed by NADPH addition measured for 60 mins by LC-MS/MS analysis; format: ADME, Microsome; details: time 70 min
[6] = Stability in human plasma assessed as compound remaining measured after 2 hrs by LC-MS/MS analysis; format: ADME, cell-free; details: read-out: Stability
[7] = Aqueous solubility of compound at pH 7.4 incubated for 24 hrs by HPLC-UV spectroscopy; format: physicochemical; details: aqueous medium
[8] = target: T2, Histone-lysine N-methyltransferase SUV39H1 (Homo sapiens); experiment: Displacement of 3H-SAM from SUV39H1 (unknown origin) using biotinylated-histone H3 peptide as substrate at 10 uM incubated for 45 mins by SPA assay relative to control
[9] = target: T1, Histone-lysine N-methyltransferase SMYD3 (Homo sapiens); experiment: Displacement of 3H-SAM from SMYD3 (unknown origin) using biotinylated-MAP3K2 as substrate at 10 uM incubated for 45 mins by SPA assay relative to control
[10] = target: T3, Histone-arginine methyltransferase CARM1 (Homo sapiens, UniProt Q86X55); experiment: Binding affinity to PRMT4 (unknown origin) assessed as dissociation constant by ITC analysis
T3 sequence (Q86X55 whole entry): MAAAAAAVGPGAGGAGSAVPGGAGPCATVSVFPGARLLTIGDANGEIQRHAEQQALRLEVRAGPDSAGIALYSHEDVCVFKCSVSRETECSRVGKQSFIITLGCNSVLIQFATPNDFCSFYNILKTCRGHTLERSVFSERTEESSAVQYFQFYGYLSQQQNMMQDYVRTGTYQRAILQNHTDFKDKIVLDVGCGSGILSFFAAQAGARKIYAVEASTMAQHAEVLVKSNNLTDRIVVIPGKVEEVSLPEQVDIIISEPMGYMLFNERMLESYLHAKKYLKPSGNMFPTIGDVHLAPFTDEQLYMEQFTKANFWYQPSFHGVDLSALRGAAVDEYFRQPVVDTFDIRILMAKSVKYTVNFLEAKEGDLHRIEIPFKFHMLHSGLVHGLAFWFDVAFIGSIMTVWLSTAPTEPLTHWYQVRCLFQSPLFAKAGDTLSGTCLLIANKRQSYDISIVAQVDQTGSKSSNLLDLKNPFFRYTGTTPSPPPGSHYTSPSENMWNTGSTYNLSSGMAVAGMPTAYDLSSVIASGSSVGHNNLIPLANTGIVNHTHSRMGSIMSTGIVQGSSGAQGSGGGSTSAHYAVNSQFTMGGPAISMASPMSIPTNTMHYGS

| inhibition [1] [%] | logD at 4 h [2] | inhibition [3] [%] | inhibition [4] [%] | half-life [5] [min] | remaining at 2 h [6] [%] | solubility at 24 h [7] [µg/mL] | inhibition [8] [%] | inhibition [9] [%] | Kd [10] [µM] | SMILES |
| --- | --- | --- | --- | --- | --- | --- | --- | --- | --- | --- |
| < 25 | -2.16 | 11 | < 25 | 10.9 | 91.3 | 187 (≈ 446 µM) | – | – | – | CNCCN1CCC(NC(=O)c2ccc3c(Nc4ccc(CN)cc4)ncnc3c2)C1 (racemic) |
| – | -2.27 | – | – | 23 | 71.2 | 210 (≈ 501 µM) | < 25 | < 25 | 25 | CNCCN1CC[C@@H](NC(=O)c2ccc3c(Nc4ccc(CN)cc4)ncnc3c2)C1 |
| – | – | – | – | – | – | – | < 25 | < 25 | 20 | CNCCN1CC[C@H](NC(=O)c2ccc3c(Nc4ccc(CN)cc4)ncnc3c2)C1 |
